Our source for the IC50 values is patent US20250163104A1, “MACROCYCLIC IMMUNOMODULATORS” (priority 2021, published 2025).

The IC50 is the concentration at which inhibition is half-maximal.

Where a SMILES comes first, the peptide text is derived from it. Bridges are numbered along the chain shown (N, C = ends). [ ]: non-standard residue; d: D form. The star is where a group is joined. Phe(3-CF3) = N[C@@H](Cc1cccc(C(F)(F)F)c1)C(=O)O; Phe(4-COOH) = N[C@@H](Cc1ccc(C(=O)O)cc1)C(=O)O; Bip = N[C@@H](Cc1ccc(-c2ccccc2)cc1)C(=O)O; Phe(3-OMe) = COc1cccc(C[C@H](N)C(=O)O)c1; Phe(3-Me) = Cc1cccc(C[C@H](N)C(=O)O)c1; 4Pal = N[C@@H](Cc1ccncc1)C(=O)O; 2Thi = N[C@@H](Cc1cccs1)C(=O)O; Cha = N[C@@H](CC1CCCCC1)C(=O)O; Cit = NC(=O)NCCC[C@H](N)C(=O)O; Carboxymethyl = O=C(O)C*; Orn = NCCC[C@H](N)C(=O)O; Pra = C#CC[C@H](N)C(=O)O; Dab = NCC[C@H](N)C(=O)O; Dap = NC[C@H](N)C(=O)O

The experiment has as its target T1, human PD-1 / PD-L1-Ig binding on Jurkat cell line over-expressing human PD-1 (Jurkat-PD-1) (Homo sapiens, UniProt Q15116).
T1 construct: expressed in transfected cells; host or cells: Jurkat
Briefly: Jurkat-PD-1 Cell Binding High-Content Screening Assay (CBA). The class given is cell-based. The following applies: Jurkat-PD-1 cells, PE-labeled PD-L1-Ig 20 nM final; read-out: Jurkat HPD1_PDL1 IC50. An outline of the steps: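 Jurkat cells over-expressing human PD-1, in DMEM/10% FCS, pre-incubated with compound 2 h at 37° C. PE-labeled human PD-L1-Ig (20 nM final) added for 1 h; cells fixed in paraformaldehyde with Hoechst 33342 nuclear stain, washed, and bound fluorescence quantified by high-content imaging.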

T1 sequence (Q15116 25-288): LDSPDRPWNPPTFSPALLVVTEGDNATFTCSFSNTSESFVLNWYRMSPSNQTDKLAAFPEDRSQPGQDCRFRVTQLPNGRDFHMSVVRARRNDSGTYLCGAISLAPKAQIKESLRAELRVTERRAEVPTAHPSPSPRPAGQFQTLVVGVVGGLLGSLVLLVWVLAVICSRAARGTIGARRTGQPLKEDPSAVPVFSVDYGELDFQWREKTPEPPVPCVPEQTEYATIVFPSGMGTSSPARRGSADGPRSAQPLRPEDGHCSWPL

For `CC[C@H](C)[C@@H]1NC(=O)[C@H](Cc2ccc(-c3ccccc3)cc2)NC(=O)[C@H](C(C)C)NC(=O)[C@H](Cc2c[nH]c3ccccc23)NC(=O)[C@H](CC(=O)O)NC(=O)[C@H](Cc2ccc(C(=O)O)cc2)NC(=O)[C@H](Cc2ccc(OCC(=O)O)cc2)NC(=O)CSC[C@@H](C(=O)N[C@@H](C)C(N)=O)NC(=O)[C@H]([C@@H](C)O)NC(=O)[C@H](C(C)C)NC(=O)[C@H](Cc2cccc(F)c2)NC(=O)[C@H](CCN)NC(=O)[C@@H](CC(C)C)NC(=O)[C@H](CCCN)NC1=O` [Compound 1670], the IC50 came out at 0.0139 µM.
For the compound `COc1cccc(C[C@@H]2NC(=O)[C@H](CN)NC(=O)CSC[C@@H](C(=O)N[C@@H](C)C(N)=O)NC(=O)[C@H]([C@@H](C)O)NC(=O)[C@H](C(C)C)NC(=O)[C@H](CC3CCCCC3)NC(=O)[C@H](CCN)NC(=O)[C@@H](CC(C)C)NC(=O)[C@H](CCCN)NC(=O)[C@H](CCCNC(N)=O)NC(=O)[C@H](Cc3ccc(-c4ccccc4)cc3)NC(=O)[C@H](C(C)C)NC(=O)[C@H](Cc3c[nH]c4ccccc34)NC(=O)[C@H](CC(=O)O)NC2=O)c1` [Compound 2091] ({CH2CO}-[Dap][Phe(3-OMe)]DWV[Bip][Cit][Orn][dL][Dab][Cha]VTCA-NH2; thioether N-14), the IC50 came out at 0.0243 µM.
As to `CC(C)C[C@@H]1NC(=O)[C@H](CCN)NC(=O)[C@@H](CC(C)C)NC(=O)[C@H](CCN)NC(=O)[C@H](C(C)C)NC(=O)[C@H](Cc2ccc(-c3ccccc3)cc2)NC(=O)[C@H](C(C)C)NC(=O)[C@H](Cc2c[nH]c3ccccc23)NC(=O)[C@H](CC(N)=O)NC(=O)[C@H](Cc2ccc(O)cc2)NC(=O)[C@H](CC(N)=O)NC(=O)CSC[C@@H](C(=O)NCC(N)=O)NC(=O)[C@H]([C@@H](C)O)NC(=O)[C@H](C(C)C)NC1=O` [Compound 1086] ({CH2CO}-NYNWV[Bip]V[Dab][dL][Dab]LVTCG-NH2; thioether N-14), the IC50 was determined as 0.0205 µM.
Take `CCCC[C@H]1NC(=O)[C@H](CCCN)NC(=O)[C@H]([C@@H](C)CC)NC(=O)[C@H](Cc2ccc(-c3ccccc3)cc2)NC(=O)[C@H](C(C)C)NC(=O)[C@H](Cc2c[nH]c3ccccc23)NC(=O)[C@H](CC(=O)O)NC(=O)[C@H](Cc2ccc(OCC(=O)O)cc2)NC(=O)[C@H](Cc2ccncc2)NC(=O)CSC[C@@H](C(=O)N[C@@H](C)C(N)=O)NC(=O)[C@H]([C@@H](C)O)NC(=O)[C@H](C(C)C)NC(=O)[C@H](CC2CCCCC2)NC(=O)[C@H](CCN)NC1=O` [Compound 1709]: the IC50 came out at 0.0104 µM.
`CC(C)C[C@@H]1NC(=O)[C@H](Cc2c[nH]c3ccccc23)NC(=O)[C@H](CC(=O)O)NC(=O)[C@H](Cc2ccc(O)cc2)NC(=O)[C@H](Cc2ccccc2)NC(=O)CSC[C@@H](C(=O)NCC(N)=O)NC(=O)[C@H](CO)NC(=O)[C@H](C(C)C)NC(=O)[C@H](CC(C)C)NC(=O)[C@H](CC(N)=O)NC(=O)[C@@H](C)NC(=O)[C@H](CCCN)NC(=O)[C@H](C(C)C)NC(=O)[C@H](Cc2ccc(-c3ccccc3)cc2)NC1=O` [Compound 1093] ({CH2CO}-FYDWL[Bip]V[Orn][dA]NLVSCG-NH2; thioether N-14): the IC50 stood at 0.12 µM.
With `CC(C)C[C@H]1NC(=O)[C@H](CN)NC(=O)[C@H](C(C)C)NC(=O)[C@H](Cc2ccc(-c3ccccc3)cc2)NC(=O)[C@H](C(C)C)NC(=O)[C@H](Cc2c[nH]c3ccccc23)NC(=O)[C@H](CC(=O)O)NC(=O)[C@H](Cc2ccc(C(=O)O)cc2)NC(=O)[C@H](Cc2ccc(OCC(=O)O)cc2)NC(=O)CSC[C@@H](C(=O)NCC(N)=O)NC(=O)[C@H](CO)NC(=O)[C@H](C(C)C)NC(=O)[C@H](CC2CCCCC2)NC(=O)[C@H](CC(N)=O)NC1=O` [Compound 1413] ({CH2CO}-Y(Carboxymethyl)[Phe(4-COOH)]DWV[Bip]V[Dap][dL]N[Cha]VSCG-NH2; thioether N-14), the IC50 is 0.0088 µM.
Take `CC(C)C[C@H]1NC(=O)[C@H](CCCN)NC(=O)[C@H](CCCNC(N)=O)NC(=O)[C@H](Cc2ccc(-c3ccccc3)cc2)NC(=O)[C@H](C(C)C)NC(=O)[C@H](Cc2c[nH]c3ccccc23)NC(=O)[C@H](CC(=O)O)NC(=O)[C@H](Cc2ccc(OCC(=O)O)cc2)NC(=O)[C@H](Cc2ccc(OCC(=O)O)cc2)NC(=O)CSC[C@@H](C(=O)N[C@@H](C)C(N)=O)NC(=O)[C@H]([C@@H](C)O)NC(=O)[C@H](C(C)C)NC(=O)[C@H](Cc2ccccc2)NC(=O)[C@H](CCN)NC1=O` [Compound 1665] ({CH2CO}-Y(Carboxymethyl)Y(Carboxymethyl)DWV[Bip][Cit][Orn][dL][Dab]FVTCA-NH2; thioether N-14): the 50% inhibitory concentration (IC50) came out at 0.017 µM.
Consider `CC[C@H](C)[C@@H]1NC(=O)[C@H](Cc2ccc(-c3ccccc3)cc2)NC(=O)[C@H](C(C)C)NC(=O)[C@H](Cc2cccc(C)c2)NC(=O)[C@H](CC(=O)O)NC(=O)[C@H](Cc2ccc(C(=O)O)cc2)NC(=O)[C@H](CN)NC(=O)CSC[C@@H](C(=O)N[C@@H](C)C(N)=O)NC(=O)[C@H]([C@@H](C)O)NC(=O)[C@H](C(C)C)NC(=O)[C@H](CC2CCCCC2)NC(=O)[C@H](CCN)NC(=O)[C@@H](CC(C)C)NC(=O)[C@H](CCCN)NC1=O` [Compound 1204], for which the IC50 turned out to be 0.0057 µM.
To `CC(C)C[C@@H]1NC(=O)[C@H](CCN)NC(=O)[C@@H](CC(C)C)NC(=O)[C@H](CCCN)NC(=O)[C@H](CCCNC(N)=O)NC(=O)[C@H](Cc2ccc(-c3ccccc3)cc2)NC(=O)[C@H](C(C)C)NC(=O)[C@H](Cc2c[nH]c3ccccc23)NC(=O)[C@H](CC(=O)O)NC(=O)[C@H](Cc2ccc(O)cc2)NC(=O)[C@H](Cc2ccncc2)NC(=O)CSC[C@@H](C(=O)N[C@@H](C)C(N)=O)NC(=O)[C@H]([C@@H](C)O)NC(=O)[C@H](C(C)C)NC1=O` [Compound 1044] ({CH2CO}-[4Pal]YDWV[Bip][Cit][Orn][dL][Dab]LVTCA-NH2; thioether N-14) belongs 0.0261 µM; to `CC(C)C[C@@H]1NC(=O)[C@H](CCN)NC(=O)[C@@H](CC(C)C)NC(=O)[C@H](CCCCN)NC(=O)[C@H](C(C)C)NC(=O)[C@H](Cc2ccc(-c3ccccc3)cc2)NC(=O)[C@H](C(C)C)NC(=O)[C@H](Cc2c[nH]c3ccccc23)NC(=O)[C@H](CC(=O)O)NC(=O)[C@H](Cc2ccc(O)cc2)NC(=O)[C@H](CC(N)=O)NC(=O)CSC[C@@H](C(=O)N[C@@H](C)C(N)=O)NC(=O)[C@H]([C@@H](C)O)NC(=O)[C@H](C(C)C)NC1=O` [Compound 1025] ({CH2CO}-NYDWV[Bip]VK[dL][Dab]LVTCA-NH2; thioether N-14), 0.011 µM.
For the compound `CC[C@H](C)[C@@H]1NC(=O)[C@H](CC2CCCCC2)NC(=O)[C@H](CCN)NC(=O)[C@@H](CC(C)C)NC(=O)[C@H](CCCN)NC(=O)[C@H](CCCNC(N)=O)NC(=O)[C@H](Cc2ccc(-c3ccccc3)cc2)NC(=O)[C@H](C(C)C)NC(=O)[C@H](Cc2c[nH]c3ccccc23)NC(=O)[C@H](CC(=O)O)NC(=O)[C@H](Cc2ccc(OCC(=O)O)cc2)NC(=O)[C@H](CN)NC(=O)CSC[C@@H](C(=O)N[C@@H](C)C(N)=O)NC(=O)[C@H]([C@@H](C)O)NC1=O` [Compound 1314] ({CH2CO}-[Dap]Y(Carboxymethyl)DWV[Bip][Cit][Orn][dL][Dab][Cha]ITCA-NH2; thioether N-14), the IC50 is 0.009 µM.
As for `CC(C)C[C@H]1NC(=O)[C@H](CCCN)NC(=O)[C@H](C(C)C)NC(=O)[C@H](Cc2ccc(-c3ccccc3)cc2)NC(=O)[C@H](C(C)C)NC(=O)[C@H](Cc2c[nH]c3ccccc23)NC(=O)[C@H](CC(=O)O)NC(=O)[C@H](Cc2ccc(OCC(=O)O)cc2)NC(=O)[C@H](CN)NC(=O)CSC[C@@H](C(=O)N[C@@H](C)C(N)=O)NC(=O)[C@H](Cc2cnc[nH]2)NC(=O)[C@H](C(C)C)NC(=O)[C@H](CC2CCCCC2)NC(=O)[C@H](CCN)NC1=O` [Compound 1750] ({CH2CO}-[Dap]Y(Carboxymethyl)DWV[Bip]V[Orn][dL][Dab][Cha]VHCA-NH2; thioether N-14), the figure is 0.0113 µM; as for `CC[C@H](C)[C@@H]1NC(=O)[C@H](Cc2ccc(-c3ccccc3)cc2)NC(=O)[C@H](C(C)C)NC(=O)[C@H](Cc2cccc(C(F)(F)F)c2)NC(=O)[C@H](CC(=O)O)NC(=O)[C@H](Cc2ccncc2)NC(=O)[C@H](CN)NC(=O)CSC[C@@H](C(=O)N[C@@H](C)C(N)=O)NC(=O)[C@H]([C@@H](C)O)NC(=O)[C@H](C(C)C)NC(=O)[C@H](CC2CCCCC2)NC(=O)[C@H](CCN)NC(=O)[C@@H](CC(C)C)NC(=O)[C@H](CCCN)NC1=O` [Compound 1564] ({CH2CO}-[Dap][4Pal]D[Phe(3-CF3)]V[Bip]I[Orn][dL][Dab][Cha]VTCA-NH2; thioether N-14), 0.0361 µM; as for `C#CC[C@H](NC(=O)[C@H](CCN)NC(=O)[C@@H]1CSCC(=O)N[C@@H](CCN)C(=O)N[C@@H](Cc2ccc(OCC(=O)O)cc2)C(=O)N[C@@H](CC(=O)O)C(=O)N[C@@H](Cc2cccc(C)c2)C(=O)N[C@@H](Cc2ccc(C(=O)O)cc2)C(=O)N[C@@H](Cc2ccc(-c3ccccc3)cc2)C(=O)N[C@@H](Cc2ccc(C(=O)O)cc2)C(=O)N[C@@H](CCCN)C(=O)N[C@H](CC(C)C)C(=O)N[C@@H](CCN)C(=O)N[C@@H](CC2CCCCC2)C(=O)N[C@@H](C(C)C)C(=O)N[C@@H](CCC(=O)O)C(=O)N1)C(=O)O` [Compound 1823] ({CH2CO}-[Dab]Y(Carboxymethyl)D[Phe(3-Me)][Phe(4-COOH)][Bip][Phe(4-COOH)][Orn][dL][Dab][Cha]VEC[Dab][Pra]-OH; thioether N-14), 0.0101 µM.
As for `CC(C)C[C@H]1NC(=O)[C@H](CCCN)NC(=O)[C@H](CCC(=O)O)NC(=O)[C@H](Cc2ccc(-c3ccccc3)cc2)NC(=O)[C@H](C(C)C)NC(=O)[C@H](Cc2c[nH]c3ccccc23)NC(=O)[C@H](CC(=O)O)NC(=O)[C@H](Cc2cccs2)NC(=O)[C@H](Cc2ccccc2)NC(=O)CSC[C@@H](C(=O)N[C@@H](C)C(N)=O)NC(=O)[C@H]([C@@H](C)O)NC(=O)[C@H](C(C)C)NC(=O)[C@H](CC2CCCCC2)NC(=O)[C@H](CCN)NC1=O` [Compound 2191] ({CH2CO}-F[2Thi]DWV[Bip]E[Orn][dL][Dab][Cha]VTCA-NH2; thioether N-14), the figure is 0.0595 µM.
